Experimental data published in US4385055A, “2-Acetyl-and 2-propionylpyridine thiosemicarbazones as antimalarials” (The United States of America as represented by the …, priority 1981, dated 1983).
≈ marks a conversion by molar mass, not a printed value. Where two headings read alike, the source gives them in different places.

Experiments:
[1] = system: Plasmodium berghei KBG 173; assay: In vivo antimalarial activity in mice (Test 5); set-up: key to In vivo Antimalarial Activity: C: Mice surviving 60 days are considered cured; Active: Activity is defined as a 100% increase in the mean survival time of the treated mice compared to the control group; Toxicity is defined as a decrease in the mean survival time of the treated mice as compared to the control group; conditions: for ED50: Plasmodium berghei, computed estimate of the dose required to cure 50% of the mice; for In vivo Antimalarial Activity: mice, C = Cure (cured/treated mice)
Procedure: Compounds were tested against Plasmodium berghei KBG 173 malaria in mice following the procedure described by T. S. Osdene, P. B. Russell, and L. Rane [J. Med. Chem. 10:431-434 (1967)]. Five mice were tested at each dosage level. Mice surviving 60 days are considered cured. Toxicity is defined as a decrease in the mean survival time of the treated mice as compared to the control group. Activity is defined as a 100% increase in the mean survival time of the treated mice compared to the control group.

Staphylococcus aureus = assay: Macro broth dilution MIC, Staphylococcus aureus isolates (Test 1); format: cell-based; conditions: 24 h, read after 24 hours, read-out: Minimum Inhibitory Concentration
Procedure: (§1) Compounds were tested against five isolates of Staphylococcus aureus and five isolates of Group D Enterococcus. The bacteria used were isolated from patients at the Walter Reed Army Medical Center, Washington, D.C. The test procedure used was the macro broth dilution method in duplicate as outlined by J. C. Sherris on pages 414-415 in "Manual of Clinical Microbiology," 2nd ed., E. Lennette, E. H. Spaulding, and J. P. Truant, Ed. (American Society for Microbiology, Washington, D.C., 1974). Each compound was dissolved in DMSO (12.8 mg/mL) and then diluted with Mueller-Hinton broth to obtain the desired dilutions. Tubes containing the highest quantities of DMSO with no compound present were run as controls.

Neisseria meningitidis = assay: Macro broth dilution MIC, Neisseria meningitidis isolates (Test 2); format: cell-based; conditions: Neisseria meningitidis, 24 h, read after 24 hours, read-out: Minimum Inhibitory Concentration
Procedure: Compounds were tested against five isolates of Neisseria meningitidis. The bacterial isolates were provided by the Department of Bacterial Diseases of the Walter Reed Army Institute of Research. The test procedure used was the macro broth dilution method in duplicate outlined by J. C. Sherris on pages 414-415 (loc. cit.). The test compounds and controls were prepared as in Test 1 above. Ampicillin and penicillin standards were initially diluted as described by J. C. Sherris on pages 411-412 (loc. cit.) followed by dilution with Mueller-Hinton broth. The tubes were incubated at 37° C. under 5-10% carbon dioxide.

Group D Enterococcus = assay: Macro broth dilution MIC, Group D Enterococcus isolates (Test 1); format: cell-based; conditions: 24 h, read after 24 hours, read-out: Minimum Inhibitory Concentration
Procedure: as §1

[2] = system: Mycobacterium intracellulare; assay: Broth dilution MIC, Mycobacterium intracellulare strains (Test 6); format: cell-based; conditions: read-out: Minimum Inhibitory Concentration
Neisseria gonorrhoeae = assay: Agar dilution MIC, Neisseria gonorrhoeae isolates (Test 3); format: cell-based; conditions: 24 h, read-out: Minimum Inhibitory Concentration
Procedure: Compounds were tested against six Neisseria gonorrhoeae isolates. The bacteria used were provided by the Department of Bacterial Diseases of the Walter Reed Army Institute of Research. The test procedure used was the agar dilution method in duplicate as outlined by J. C. Sherris on pages 411-412 (loc. cit.). GC Medium (Difco) with a 2% defined supplement added as described by D. S. Kellogg et al. [J. Bact. 85:1274-1279 (1963)] was used as the media. The compounds were dissolved in DMSO (1.0 mg/mL), diluted with GC broth (GC Medium without agar) to the appropriate concentration, and added to the GC Medium at 55°-56° C. The latter was then poured and allowed to solidify. A penicillin standard was also prepared with initial dilutions as described by J. C. Sherris followed by dilutions with GC broth and addition to the GC Medium at 55°-56° C. as above. The inoculum was 1:200 GC broth dilution of a suspension of colony isolates after the suspension was adjusted visually to the turbidity standard described by J. M. Matsen and A. L. Barr on page 422 in "Manual of Clinical Microbiology," 2nd ed., E. Lennette, E. H. Spaulding, and J. P. Truant, Ed. (American Society for Microbiology, Washington, D.C., 1974). The plates were inoculated with a replicator and incubated at 37° C. under 5-10% carbon dioxide.

Mycobacterium smegmatis = assay: MIC against Mycobacterium smegmatis strains (Test 4); format: cell-based; conditions: Mycolicibacterium smegmatis, read-out: Minimum Inhibitory Concentration
Procedure: Compounds were tested against four strains of Mycobacterium smegmatis. The test procedure used was as mentioned by N. E. Morrison [Int. J. of Leprosy 39:34-43 (1971)]. The strain numbers refer to Mycobacterium smegmatis ATCC 607, a DDS-resistant daughter strain, a Rifampin-resistant daughter strain, and a Clofazimine-resistant daughter strain, respectively.

[3] = Staphylococcus aureus isolate I
[4] = Staphylococcus aureus isolate II
[5] = Staphylococcus aureus isolate III
[6] = Staphylococcus aureus isolate IV
[7] = Staphylococcus aureus isolate V
[8] = Neisseria meningitidis isolate 7957
[9] = Neisseria meningitidis isolate 7990
[10] = Neisseria meningitidis isolate 8005
[11] = Neisseria meningitidis isolate 8006
[12] = Neisseria meningitidis isolate 8011
[13] = Group D Enterococcus isolate II
[14] = Group D Enterococcus isolate III
[15] = Group D Enterococcus isolate IV
[16] = Mycobacterium intracellulare strain I
[17] = Mycobacterium intracellulare strain II
[18] = Mycobacterium intracellulare strain III
[19] = Mycobacterium intracellulare strain IV
[20] = Mycobacterium intracellulare strain V
[21] = Mycobacterium intracellulare strain VI
[22] = Neisseria gonorrhoeae isolate 135, read after 24 hours
[23] = Neisseria gonorrhoeae isolate 161, read after 24 hours
[24] = Neisseria gonorrhoeae isolate 278, read after 24 hours
[25] = Neisseria gonorrhoeae isolate 455, read after 24 hours
[26] = Neisseria gonorrhoeae isolate 456, read after 24 hours
[27] = Neisseria gonorrhoeae isolate 602, read after 24 hours

SMILES: CC(=NNC(=S)N1CCCCC1C)c1ccccn1 (stereo not shown) [B, 2-Methylpiperidine-1-thiocarboxylic acid 2-[1-(2-pyridyl)ethylidene]hydrazide]
- ED50 [1]: 57 mg/kg
- In vivo Antimalarial Activity ([1]; Dosage Level 160 mg/kg): Active
- In vivo Antimalarial Activity ([1]; Dosage Level 320 mg/kg): Toxic
- In vivo Antimalarial Activity ([1]; Dosage Level 640 mg/kg): Toxic
- MIC (Staphylococcus aureus; [3]): 1 µg/mL (≈ 3.62 µM)
- MIC (Staphylococcus aureus; [4]): 1 µg/mL (≈ 3.62 µM)
- MIC (Staphylococcus aureus; [5]): 1 µg/mL (≈ 3.62 µM)
- MIC (Staphylococcus aureus; [6]): 1 µg/mL (≈ 3.62 µM)
- MIC (Staphylococcus aureus; [7]): 1 µg/mL (≈ 3.62 µM)
- MIC (Neisseria meningitidis; [8]): 0.062 µg/mL (≈ 0.224 µM)
- MIC (Neisseria meningitidis; [9]): 0.062 µg/mL (≈ 0.224 µM)
- MIC (Neisseria meningitidis; [10]): 0.125 µg/mL (≈ 0.452 µM)
- MIC (Neisseria meningitidis; [11]): 0.062 µg/mL (≈ 0.224 µM)
- MIC (Neisseria meningitidis; [12]): 0.5 µg/mL (≈ 1.81 µM)

SMILES: CCOC(=O)N1CCN(C(=S)NN=C(C)c2ccccn2)CC1 [Compound I, 1,4-Diaza-4-carboethoxycyclohexane-1-thiocarboxylic acid 2-[1-(2-pyridyl)ethylidene]hydrazide]
- In vivo Antimalarial Activity ([1]; Dosage Level 10 mg/kg): Active
- In vivo Antimalarial Activity ([1]; Dosage Level 20 mg/kg): Active
- In vivo Antimalarial Activity ([1]; Dosage Level 160 mg/kg): Toxic
- In vivo Antimalarial Activity ([1]; Dosage Level 640 mg/kg): Toxic

SMILES: CC(=NNC(=S)N1CC2CCC(CC2)C1)c1ccccn1 [L, 3-Azabicyclo[3.2.2]nonane-3-thiocarboxylic acid 2-[1-(2-pyridyl)ethylidene]hydrazide]
- MIC (Group D Enterococcus; Group D Enterococcus isolate I): 2 µg/mL (≈ 6.61 µM)
- MIC (Group D Enterococcus; [13]): 2 µg/mL (≈ 6.61 µM)
- MIC (Group D Enterococcus; [14]): 2 µg/mL (≈ 6.61 µM)
- MIC (Group D Enterococcus; [15]): 2 µg/mL (≈ 6.61 µM)
- MIC (Group D Enterococcus; Group D Enterococcus isolate V): 2 µg/mL (≈ 6.61 µM)
- ED50 [1]: 59 mg/kg
- MIC (Staphylococcus aureus; [3]): 1 µg/mL (≈ 3.31 µM)
- MIC (Staphylococcus aureus; [4]): 1 µg/mL (≈ 3.31 µM)
- MIC (Staphylococcus aureus; [5]): 1 µg/mL (≈ 3.31 µM)
- MIC (Staphylococcus aureus; [6]): 1 µg/mL (≈ 3.31 µM)
- MIC (Staphylococcus aureus; [7]): 1 µg/mL (≈ 3.31 µM)
- MIC (Neisseria meningitidis; [8]): 0.031 µg/mL (≈ 0.102 µM)
- MIC (Neisseria meningitidis; [9]): 0.062 µg/mL (≈ 0.205 µM)
- MIC (Neisseria meningitidis; [10]): < 0.031 µg/mL
- MIC (Neisseria meningitidis; [11]): 0.062 µg/mL (≈ 0.205 µM)
- MIC (Neisseria meningitidis; [12]): 0.125 µg/mL (≈ 0.413 µM)
- MIC [2, 16]: 10 µg/mL (≈ 33.1 µM)
- MIC [2, 17]: 1 µg/mL (≈ 3.31 µM)
- MIC [2, 18]: 1 µg/mL (≈ 3.31 µM)
- MIC [2, 19]: 0.1 µg/mL (≈ 0.331 µM)
- MIC [2, 20]: 0.1 µg/mL (≈ 0.331 µM)
- MIC [2, 21]: 0.1 µg/mL (≈ 0.331 µM)
- MIC (Neisseria gonorrhoeae; [22]): 0.031 µg/mL (≈ 0.102 µM)
- MIC (Neisseria gonorrhoeae; [23]): 0.016 µg/mL (≈ 0.0529 µM)
- MIC (Neisseria gonorrhoeae; [24]): 0.031 µg/mL (≈ 0.102 µM)
- MIC (Neisseria gonorrhoeae; [25]): 0.031 µg/mL (≈ 0.102 µM)
- MIC (Neisseria gonorrhoeae; [26]): 0.031 µg/mL (≈ 0.102 µM)
- MIC (Neisseria gonorrhoeae; [27]): 0.031 µg/mL (≈ 0.102 µM)

SMILES: CCC1CCCCN1C(=S)NN=C(C)c1ccccn1 (stereo not shown) [AA, 2-Ethylpiperidine-1-thiocarboxylic acid 2-[1-(2-pyridyl)ethylidene]hydrazide]
- ED50 [1]: 113 mg/kg
- MIC [2, 16]: 10 µg/mL (≈ 34.4 µM)
- MIC [2, 17]: 1 µg/mL (≈ 3.44 µM)
- MIC [2, 18]: 1 µg/mL (≈ 3.44 µM)
- MIC [2, 19]: 1 µg/mL (≈ 3.44 µM)
- MIC [2, 20]: 10 µg/mL (≈ 34.4 µM)
- MIC [2, 21]: 10 µg/mL (≈ 34.4 µM)
- MIC (Mycobacterium smegmatis; ATCC607, Mycobacterium smegmatis strain I (ATCC 607)): 5 µg/mL (≈ 17.2 µM)
- MIC (Mycobacterium smegmatis; Mycobacterium smegmatis strain II (DDS-resistant daughter strain)): 10 µg/mL (≈ 34.4 µM)
- MIC (Mycobacterium smegmatis; Mycobacterium smegmatis strain III (Rifampin-resistant daughter strain)): 10 µg/mL (≈ 34.4 µM)
- MIC (Mycobacterium smegmatis; Mycobacterium smegmatis strain IV (Clofazimine-resistant daughter strain)): 10 µg/mL (≈ 34.4 µM)

SMILES: CC(=NNC(=S)N1CCN(c2ccccn2)CC1)c1ccccn1 [V, 1,4-Diaza-4-(2-pyridyl)cyclohexane-1-thiocarboxylic acid 2-[1-(2-pyridyl)ethylidene]hydrazide]
- ED50 [1]: 45 mg/kg
- In vivo Antimalarial Activity ([1]; Dosage Level 640 mg/kg): Toxic
- MIC (Neisseria meningitidis; [8]): 0.062 µg/mL (≈ 0.182 µM)
- MIC (Neisseria meningitidis; [9]): 0.125 µg/mL (≈ 0.367 µM)
- MIC (Neisseria meningitidis; [10]): 0.125 µg/mL (≈ 0.367 µM)
- MIC (Neisseria meningitidis; [11]): 0.125 µg/mL (≈ 0.367 µM)
- MIC (Neisseria meningitidis; [12]): 0.25 µg/mL (≈ 0.734 µM)
- MIC (Neisseria gonorrhoeae; [22]): 0.016 µg/mL (≈ 0.047 µM)
- MIC (Neisseria gonorrhoeae; [23]): < 0.008 µg/mL
- MIC (Neisseria gonorrhoeae; [24]): 0.031 µg/mL (≈ 0.0911 µM)
- MIC (Neisseria gonorrhoeae; [25]): 0.016 µg/mL (≈ 0.047 µM)
- MIC (Neisseria gonorrhoeae; [26]): 0.016 µg/mL (≈ 0.047 µM)
- MIC (Neisseria gonorrhoeae; [27]): 0.016 µg/mL (≈ 0.047 µM)

SMILES: CC(=NNC(=S)N1CCCCCC1)c1ccccn1 [H, 1-Azacycloheptane-1-thiocarboxylic acid 2-[1-(2-pyridyl)ethylidene]hydrazide]
- MIC (Group D Enterococcus; Group D Enterococcus isolate I): 4 µg/mL (≈ 14.5 µM)
- MIC (Group D Enterococcus; [13]): 4 µg/mL (≈ 14.5 µM)
- MIC (Group D Enterococcus; [14]): 4 µg/mL (≈ 14.5 µM)
- MIC (Group D Enterococcus; [15]): 4 µg/mL (≈ 14.5 µM)
- MIC (Group D Enterococcus; Group D Enterococcus isolate V): 4 µg/mL (≈ 14.5 µM)
- ED50 [1]: 72 mg/kg
- In vivo Antimalarial Activity ([1]; Dosage Level 40 mg/kg): Active
- MIC (Neisseria meningitidis; [8]): 0.031 µg/mL (≈ 0.112 µM)
- MIC (Neisseria meningitidis; [9]): 0.062 µg/mL (≈ 0.224 µM)
- MIC (Neisseria meningitidis; [10]): 0.062 µg/mL (≈ 0.224 µM)
- MIC (Neisseria meningitidis; [11]): 0.125 µg/mL (≈ 0.452 µM)
- MIC (Neisseria meningitidis; [12]): 0.062 µg/mL (≈ 0.224 µM)
- MIC [2, 16]: 1 µg/mL (≈ 3.62 µM)
- MIC [2, 17]: 1 µg/mL (≈ 3.62 µM)
- MIC [2, 18]: 1 µg/mL (≈ 3.62 µM)
- MIC [2, 19]: 1 µg/mL (≈ 3.62 µM)
- MIC [2, 20]: 1 µg/mL (≈ 3.62 µM)
- MIC [2, 21]: 1 µg/mL (≈ 3.62 µM)
- MIC (Neisseria gonorrhoeae; [22]): 0.031 µg/mL (≈ 0.112 µM)
- MIC (Neisseria gonorrhoeae; [23]): 0.016 µg/mL (≈ 0.0579 µM)
- MIC (Neisseria gonorrhoeae; [24]): 0.031 µg/mL (≈ 0.112 µM)
- MIC (Neisseria gonorrhoeae; [25]): 0.031 µg/mL (≈ 0.112 µM)
- MIC (Neisseria gonorrhoeae; [26]): 0.016 µg/mL (≈ 0.0579 µM)
- MIC (Neisseria gonorrhoeae; [27]): 0.031 µg/mL (≈ 0.112 µM)
